These results are taken from ChEMBL document CHEMBL4152222, “Structural insights into serotonin receptor ligands polypharmacology” (Eur J Med Chem, 2018).

For experiment [1], the target named is T1, 5-hydroxytryptamine receptor 1A (Homo sapiens, UniProt P08908).
T1 sequence (P08908 whole entry): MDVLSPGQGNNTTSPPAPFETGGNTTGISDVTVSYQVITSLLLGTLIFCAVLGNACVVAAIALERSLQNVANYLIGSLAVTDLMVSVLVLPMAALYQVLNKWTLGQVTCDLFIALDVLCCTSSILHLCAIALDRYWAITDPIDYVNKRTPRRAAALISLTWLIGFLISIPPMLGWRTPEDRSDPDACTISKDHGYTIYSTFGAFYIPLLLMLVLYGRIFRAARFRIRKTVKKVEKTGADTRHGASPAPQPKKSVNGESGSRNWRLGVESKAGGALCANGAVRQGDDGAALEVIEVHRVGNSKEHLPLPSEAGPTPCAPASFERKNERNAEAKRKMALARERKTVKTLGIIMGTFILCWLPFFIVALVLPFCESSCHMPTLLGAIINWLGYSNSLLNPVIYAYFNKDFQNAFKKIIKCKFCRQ
Description: Displacement of [3H]-8-OH-DPAT from human 5-HT1A receptor expressed in HEK293 cell membranes after 1 hr by microbeta TopCount analysis.

For experiment [2], the species on record is Homo sapiens. Briefly: Selectivity index, ratio of Ki for human 5-HT1A receptor to Ki for human 5-HT6 receptor.
The species entered for experiment [3] is Homo sapiens. Briefly: Selectivity index, ratio of Ki for human 5-HT1A receptor to Ki for human 5-HT7B receptor.
Experiment [4] deals with 5-hydroxytryptamine receptor 7 (Homo sapiens, UniProt P34969). Description: Displacement of [3H]-5-CT from human 5-HT7b receptor expressed in HEK293 cell membranes after 1 hr by microbeta TopCount analysis. For orientation: In a radioligand displacement assay an active substance lowers the binding of a labelled ligand.
5-hydroxytryptamine receptor 7, sequence (P34969 whole entry): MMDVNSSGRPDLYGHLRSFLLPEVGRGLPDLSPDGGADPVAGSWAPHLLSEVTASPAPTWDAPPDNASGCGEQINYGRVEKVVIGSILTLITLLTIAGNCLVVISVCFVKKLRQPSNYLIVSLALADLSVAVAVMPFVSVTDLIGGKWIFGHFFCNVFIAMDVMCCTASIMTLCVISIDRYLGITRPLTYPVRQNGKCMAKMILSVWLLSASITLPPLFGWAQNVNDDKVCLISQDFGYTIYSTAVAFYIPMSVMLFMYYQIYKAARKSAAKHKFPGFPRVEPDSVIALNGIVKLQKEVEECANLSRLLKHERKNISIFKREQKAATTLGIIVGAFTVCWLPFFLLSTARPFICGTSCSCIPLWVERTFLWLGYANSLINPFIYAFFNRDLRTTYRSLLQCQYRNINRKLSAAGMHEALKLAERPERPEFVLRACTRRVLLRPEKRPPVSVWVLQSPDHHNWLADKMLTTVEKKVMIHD
Experiment [5] is filed under the species Homo sapiens. Briefly: Selectivity index, ratio of Ki for human 5-HT7B receptor to Ki for human 5-HT6 receptor.
Experiment [6] addresses 5-hydroxytryptamine receptor 6 (Homo sapiens, UniProt P50406). Description: Displacement of [3H]-LSD from human 5-HT6 receptor expressed in HEK293 cell membranes after 1 hr by microbeta TopCount analysis.

5-hydroxytryptamine receptor 6, sequence (P50406 whole entry): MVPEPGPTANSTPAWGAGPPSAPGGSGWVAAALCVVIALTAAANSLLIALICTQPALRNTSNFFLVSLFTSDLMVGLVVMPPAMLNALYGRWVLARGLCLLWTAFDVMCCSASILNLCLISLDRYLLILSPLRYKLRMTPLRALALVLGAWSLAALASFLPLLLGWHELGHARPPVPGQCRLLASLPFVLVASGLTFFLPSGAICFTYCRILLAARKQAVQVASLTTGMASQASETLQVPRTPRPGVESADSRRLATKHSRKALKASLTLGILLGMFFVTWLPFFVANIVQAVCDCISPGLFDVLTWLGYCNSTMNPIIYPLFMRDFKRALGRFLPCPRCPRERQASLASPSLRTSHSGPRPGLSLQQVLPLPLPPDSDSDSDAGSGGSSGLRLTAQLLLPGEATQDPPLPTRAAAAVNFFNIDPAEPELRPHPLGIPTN

In the case of `Cc1ccc(C(CCNC(C)c2ccc(Cl)cc2)c2ccco2)cc1` (configuration not stated), the Ki was 9.1 µM in experiment [1], 8.4 µM in experiment [4] and 2.5 µM in experiment [6]. For the same compound, the values for the Ratio Ki in the experiment filed under Homo sapiens [2], in the experiment listed under Homo sapiens [3] and in the experiment filed under Homo sapiens [5] were 4, 1 and 3, respectively.
Regarding `O=C1N(Cc2ccccc2)C(c2ccccc2)=NC1(Nc1ccccn1)C(F)(F)F` (configuration not stated), the Ki in experiment [1] amounted to 284 µM; in experiment [4], 84.5 µM; in experiment [6], 1.9 µM. Moreover, the Ratio Ki in the experiment filed under Homo sapiens [2] worked out at 149; in the experiment filed under Homo sapiens [3], 3; in the experiment filed under Homo sapiens [5], 44.
As for `Cc1ccc(COc2ccc(Br)cc2CNC(C)c2ccccc2)cc1` (configuration not stated), the Ki is 196 µM in experiment [1], 3.7 µM in experiment [4] and 5.1 µM in experiment [6]. Also, the Ratio Ki in the experiment listed under Homo sapiens [2] was 38; in the experiment listed under Homo sapiens [3] it was 54; in the experiment filed under Homo sapiens [5] it was 0.7.
For the compound `CCC1(C)CC(CCNCc2ccc(OC)c(OC)c2)(c2ccc(C)cc2)CCO1` (configuration not stated), the values for the Ki in experiment [1], in experiment [4] and in experiment [6] were 36.8 µM, 37.2 µM and 3.4 µM, respectively. The Ratio Ki in the experiment listed under Homo sapiens [2] worked out at 11; in the experiment filed under Homo sapiens [3], 1; in the experiment listed under Homo sapiens [5], 11.
As for `COc1ccc(CNCCC(c2ccccc2)c2ccc3c(c2)OCO3)cc1` (configuration not stated), the Ki in experiment [1] was found to be 15.6 µM; in experiment [4], 14.1 µM; in experiment [6], 3.7 µM. Also, the results for the Ratio Ki in the experiment listed under Homo sapiens [2], in the experiment listed under Homo sapiens [3] and in the experiment listed under Homo sapiens [5] were 4, 1 and 4, respectively.
With `CC(NCCC(Cc1ccccc1)c1ccco1)c1ccc(Cl)cc1` (configuration not stated), the Ki in experiment [1] turned out to be 7.1 µM; in experiment [4], 3.8 µM; in experiment [6], 1.4 µM. For the same compound, the Ratio Ki is 5 in the experiment filed under Homo sapiens [2], 2 in the experiment listed under Homo sapiens [3] and 3 in the experiment filed under Homo sapiens [5].
On to `Cc1ccc(C(C)NCCC(c2ccc(F)cc2)c2ccco2)cc1` (configuration not stated), for which the Ki amounted to 6.1 µM in experiment [1], 12.5 µM in experiment [4] and 1.8 µM in experiment [6]. The figures for the Ratio Ki in the experiment filed under Homo sapiens [2], in the experiment listed under Homo sapiens [3] and in the experiment filed under Homo sapiens [5] were 3, 0.5 and 7, respectively.
Regarding `COc1cc(CNCCC2=CCCCC2)ccc1OCc1ccccc1`, the figures for the Ki in experiment [1], in experiment [4] and in experiment [6] were 4.9 µM, 8 µM and 2.7 µM, respectively. The Ratio Ki in the experiment filed under Homo sapiens [2] worked out at 2; in the experiment listed under Homo sapiens [3], 0.6; in the experiment listed under Homo sapiens [5], 3.
For `CCC1(C)CC(CCNCc2ccccc2)(c2ccc(C)cc2)CCO1` (configuration not stated), the Ki in experiment [1] is 41.8 µM; in experiment [4] it was 10.1 µM; in experiment [6], 5.6 µM. Also, the Ratio Ki in the experiment listed under Homo sapiens [2] was found to be 8; in the experiment listed under Homo sapiens [3], 4; in the experiment filed under Homo sapiens [5] it was 2.
`Cc1ccc(C(C)(C)CC(C)NCc2ccc(C(F)(F)F)cc2)o1` (configuration not stated): the Ki came out at 31.4 µM in experiment [1], 6.1 µM in experiment [4] and 5.8 µM in experiment [6]. Besides, the Ratio Ki in the experiment filed under Homo sapiens [2] is 5; in the experiment listed under Homo sapiens [3] it was 5; in the experiment filed under Homo sapiens [5] it was 1.
Take `COc1ccc(CNCCC(c2ccco2)c2ccccc2OC)cc1` (configuration not stated): the Ki in experiment [1] turned out to be 6.1 µM; in experiment [4], 10.4 µM; in experiment [6], 2.4 µM. The Ratio Ki in the experiment listed under Homo sapiens [2] is 2; in the experiment filed under Homo sapiens [3], 0.6; in the experiment filed under Homo sapiens [5], 4.
With `O[C@H](CCN1CCc2onc(-c3ccc(F)c(F)c3)c2C1)c1ccccc1`, the Ki in experiment [1] came to 330 µM; in experiment [4] it was 71.2 µM; in experiment [6], 9 µM. Besides, the values for the Ratio Ki in the experiment listed under Homo sapiens [2], in the experiment filed under Homo sapiens [3] and in the experiment filed under Homo sapiens [5] were 37, 5 and 8, respectively.

One may read the Ki as the equilibrium dissociation constant of an inhibitor or competing ligand from its target.
